Laboratory results as given in patent publication US20240277693A1, “A PHARMACEUTICAL PRODUCT CONTAINING TASQUINIMOD AND A METHOD FOR ASSESSING THE PURITY OF SAID PRODUCT” (ACTIVE BIOTECH AB, priority 2021, published 2024).
Each block holds one molecule with its values, some of them ahead of it.

Tests used:
[1] = Stability testing of capsules at 40° C./75% RH; assay type: physicochemical
Text: (§1) In some embodiments, the method disclosed herein comprises storing (keeping) a sample of the pharmaceutical product for a period of time, preferably under selected conditions of temperature and humidity. The amount (or concentration) of tasquinimod and of at least one of compounds I, II, III and IV in the sample may preferably be determined at the beginning or before the storage period and at the end of the storage period. The selected storage conditions may include a temperature in the range of, for example, 20° C. to 40° C., and a relative humidity in the surrounding atmosphere in the range of, for example, 30% to 75%; e.g. 25° C. and 60% RH, or 30° C. and 65% RH, or 35° C. and 70% RH, or 40° C. and 75% RH. The storage period may extend over a time period in the range of, for example, several weeks to several years. For example, the stability testing period (“storage period”) may be 2 weeks, 3 weeks, 1 month, 2 months, 3 months, 4 months, 5 months, 6 months, 9 months, 1 year, 18 months, 2 years, 3 years, 4 years or even 5 years or longer. A shorter storage period may be selected by use of higher storage temperature and/or higher relative humidity (RH). The total amount of a tasquinimod decomposition product in the sample at the end of the storage period may be determined by, for example, HPLC.
The batch of capsules manufactured in Example 2 was assessed by determining the amount of tasquinimod and the amount of compound III in a sample of the capsules, whereby the criterion for approving the batch was that a sample of capsules from the batch, at the end of a 1-month stability testing, contain not more than 1.0% w/w of compound III relative to the amount of tasquinimod. The stability testing consisted of keeping the capsules at 40° C./75% RH in open brown glass jars. At the end of the 1-month stability testing, the capsules contained 0.13% w/w of compound III, relative to the amount of tasquinimod (1.04 mg/capsule). Therefore, according to the selected criterion for approval, the batch of capsules was determined to be suitable for distribution.
The batch of capsules manufactured in Example 7 was assessed by determining the amount of tasquinimod and the amount of compound III in a sample of the capsules, whereby the criterion for approving the batch was that a sample of capsules from the batch, at the end of a 3-month stability testing, contain not more than 1.0% w/w of compound III relative to the amount of tasquinimod in the capsules. The stability testing consisted of keeping the capsules at 40° C./75% RH in sealed brown glass jars. At the end of the stability testing, the capsules contained 0.08% w/w of compound III, relative to the amount of tasquinimod (0.493 mg/capsule). Therefore, according to the selected criterion for approval, the batch of capsules was determined to be suitable for distribution.
The batch of capsules manufactured in Example 13 was assessed by determining the amount of tasquinimod and the amount of compound III in a sample of the capsules, whereby the criterion for approving the batch was that the capsules of the sample, at the end of a 3-month stability testing, contain not more than 1.0% w/w of compound III relative to the amount of tasquinimod in the capsules. The stability testing consisted of keeping the capsules, in a transparent, conventional blister pack, at 40° C./75% RH. At the end of the stability testing, the capsules contained 0.12% w/w of compound III, relative to the amount of tasquinimod (determined to be 0.253 mg/capsule). Therefore, according to the selected criterion for approval, the batch of capsules was determined to be suitable for distribution.

[2] = Stability testing of capsules at 25° C./60% RH in water impermeable blister pack; assay type: physicochemical
Text: as §1
The batch of capsules manufactured in Example 19 was assessed by determining the amount of tasquinimod and the amount of each one of compounds I, II, III and IV in a sample of the capsules at the end of a 3-month stability testing, whereby the criterion for approving the batch was that the capsules of the sample, at the end of the 3-month stability testing, contain a total amount of compounds I-IV of not more than 5.0% w/w, relative to the amount of tasquinimod in the capsules. The stability testing consisted of keeping the capsules, in a water impermeable blister pack, at 25° C./60% RH. At the end of the stability testing, the capsules contained 0.06% w/w of compound I, less than 0.05% w/w of compound II, 0.10% of compound III and less than 0.05% w/w of compound IV, relative to the amount of tasquinimod (determined to be 0.246 mg/capsule), viz. in total less than 0.26% w/w of compounds I-IV relative to the amount of tasquinimod. Therefore, according to the selected criterion for approval, the batch of capsules was determined to be suitable for distribution.
The obtained batch of capsules was subjected to multiple assessments, viz. a first assessment comprising determining the amount of tasquinimod and the amount of compounds I, II, III and IV in a sample of the capsules directly after manufacturing, whereby the selected criterion for approving the batch for distribution was that the capsules of the sample, in a water impermeable blister pack, contain not more than in total 5% w/w of compounds I-IV relative to the amount of tasquinimod, followed by eight further, independent assessments, by determining the amount of tasquinimod and the amount of each one of compounds I, II, III and IV in a sample of the capsules at the end of a period of stability testing (by keeping the capsules, in a water impermeable blister pack, at 25° C./60% RH) of 3, 6, 9, 12, 18, 24, 36 and 48 months, respectively, whereby each time the criterion for approving the batch was that the capsules of the sample, at the end of each period of stability testing, contain a total amount of compounds I-IV of not more than 5.0% w/w, relative to the amount of tasquinimod in the capsules.

[3] = 0.25 mg capsules of Example 10, 3 months, sealed brown glass jars
[4] = 0.25 mg capsules of Example 10, 6 months, sealed brown glass jars
[5] = 0.25 mg capsules of Example 13, 3 months, transparent blister pack
[6] = 0.25 mg capsules of Example 13, 6 months, blister pack
[7] = 0.5 mg capsules of Example 7, 3 months, sealed brown glass jars
[8] = 0.5 mg capsules of Example 7, 6 months, sealed brown glass jars
[9] = 1 mg capsules of Example 2, 1 month, open brown glass jars
[10] = 1 mg capsules of Example 2, 2 months, open brown glass jars
[11] = 1 mg capsules of Example 2, 3 months, open brown glass jars
[12] = 1 mg capsules of Example 2, 6 months, open brown glass jars
[13] = 1 mg capsules of Example 16, 3 months, transparent blister pack
[14] = 1 mg capsules of Example 16, 6 months, blister pack
[15] = 0.25 mg capsules of Example 19, 3 months
[16] = 0.25 mg capsules of Example 19, 6 months
[17] = 0.25 mg capsules of Example 19, 9 months
[18] = 0.25 mg capsules of Example 19, 12 months
[19] = 0.25 mg capsules of Example 19, 18 months
[20] = 0.25 mg capsules of Example 19, 24 months
[21] = 0.25 mg capsules of Example 19, 36 months
[22] = 0.25 mg capsules of Example 19, 48 months
[23] = 0.5 mg capsules of Example 28, 3 months
[24] = 0.5 mg capsules of Example 28, 6 months
[25] = 0.5 mg capsules of Example 28, 9 months
[26] = 0.5 mg capsules of Example 28, 12 months
[27] = 0.5 mg capsules of Example 28, 18 months
[28] = 0.5 mg capsules of Example 28, 24 months
[29] = 0.5 mg capsules of Example 28, 36 months
[30] = 0.5 mg capsules of Example 28, 48 months
[31] = 1.0 mg capsules of Example 29, 3 months
[32] = 1.0 mg capsules of Example 29, 6 months
[33] = 1.0 mg capsules of Example 29, 9 months
[34] = 1.0 mg capsules of Example 29, 12 months
[35] = 1.0 mg capsules of Example 29, 18 months
[36] = 1.0 mg capsules of Example 29, 24 months
[37] = 1.0 mg capsules of Example 29, 36 months
[38] = 1.0 mg capsules of Example 29, 48 months

amount of compound III in capsules, relative to the amount of tasquinimod [1, 3]: 0.10 % w/w
amount of compound III in capsules, relative to the amount of tasquinimod [1, 4]: 0.10 % w/w
amount of compound III in capsules, relative to the amount of tasquinimod [1, 5]: 0.12 % w/w
amount of compound III in capsules, relative to the amount of tasquinimod [1, 6]: 0.24 % w/w
amount of compound III in capsules, relative to the amount of tasquinimod [1, 7]: 0.08 % w/w
amount of compound III in capsules, relative to the amount of tasquinimod [1, 8]: 0.14 % w/w
amount of compound III in capsules, relative to the amount of tasquinimod [1, 9]: 0.13 % w/w
amount of compound III in capsules, relative to the amount of tasquinimod [1, 10]: 0.12 % w/w
amount of compound III in capsules, relative to the amount of tasquinimod [1, 11]: 0.14 % w/w
amount of compound III in capsules, relative to the amount of tasquinimod [1, 12]: 0.16 % w/w
amount of compound III in capsules, relative to the amount of tasquinimod [1, 13]: 0.13 % w/w
amount of compound III in capsules, relative to the amount of tasquinimod [1, 14]: 0.21 % w/w
amount of decomposition product (each of compounds I-IV) in capsules, relative to the amount of tasquinimod [2, 15]: 0.10 % w/w
amount of decomposition product (each of compounds I-IV) in capsules, relative to the amount of tasquinimod [2, 16]: 0.16 % w/w
amount of decomposition product (each of compounds I-IV) in capsules, relative to the amount of tasquinimod [2, 17]: 0.21 % w/w
amount of decomposition product (each of compounds I-IV) in capsules, relative to the amount of tasquinimod [2, 18]: 0.26 % w/w
amount of decomposition product (each of compounds I-IV) in capsules, relative to the amount of tasquinimod [2, 19]: 0.35 % w/w
amount of decomposition product (each of compounds I-IV) in capsules, relative to the amount of tasquinimod [2, 20]: 0.41 % w/w
amount of decomposition product (each of compounds I-IV) in capsules, relative to the amount of tasquinimod [2, 21]: 0.57 % w/w
amount of decomposition product (each of compounds I-IV) in capsules, relative to the amount of tasquinimod [2, 22]: 0.79 % w/w
Decomposition products (% w/w), relative to the amount of tasquinimod in capsule [2, 23]: 0.05 % w/w
Decomposition products (% w/w), relative to the amount of tasquinimod in capsule [2, 24]: 0.09 % w/w
Decomposition products (% w/w), relative to the amount of tasquinimod in capsule [2, 25]: 0.11 % w/w
Decomposition products (% w/w), relative to the amount of tasquinimod in capsule [2, 26]: 0.13 % w/w
Decomposition products (% w/w), relative to the amount of tasquinimod in capsule [2, 27]: 0.16 % w/w
Decomposition products (% w/w), relative to the amount of tasquinimod in capsule [2, 28]: 0.19 % w/w
Decomposition products (% w/w), relative to the amount of tasquinimod in capsule [2, 29]: 0.27 % w/w
Decomposition products (% w/w), relative to the amount of tasquinimod in capsule [2, 30]: 0.36 % w/w
Decomposition products (% w/w), relative to the amount of tasquinimod in capsule [2, 31]: <0.05 % w/w
Decomposition products (% w/w), relative to the amount of tasquinimod in capsule [2, 32]: <0.05 % w/w
Decomposition products (% w/w), relative to the amount of tasquinimod in capsule [2, 33]: <0.05 % w/w
Decomposition products (% w/w), relative to the amount of tasquinimod in capsule [2, 34]: 0.06 % w/w
Decomposition products (% w/w), relative to the amount of tasquinimod in capsule [2, 35]: 0.09 % w/w
Decomposition products (% w/w), relative to the amount of tasquinimod in capsule [2, 36]: 0.10 % w/w
Decomposition products (% w/w), relative to the amount of tasquinimod in capsule [2, 37]: 0.15 % w/w
Decomposition products (% w/w), relative to the amount of tasquinimod in capsule [2, 38]: 0.18 % w/w
Compound: COc1cccc2c1c(O)cc(=O)n2C [Compound III, 4-hydroxy-5-methoxy-1-methylquinolin-2(1H)-one]

amount of tasquinimod in capsules [1, 3]: 0.253 mg/capsule
amount of tasquinimod in capsules [1, 4]: 0.247 mg/capsule
amount of tasquinimod in capsules [1, 5]: 0.253 mg/capsule
amount of tasquinimod in capsules [1, 6]: 0.247 mg/capsule
amount of tasquinimod in capsules [1, 7]: 0.493 mg/capsule
amount of tasquinimod in capsules [1, 8]: 0.487 mg/capsule
amount of tasquinimod in capsules [1, 9]: 1.04 mg/capsule
amount of tasquinimod in capsules [1, 10]: 1.04 mg/capsule
amount of tasquinimod in capsules [1, 11]: 1.00 mg/capsule
amount of tasquinimod in capsules [1, 12]: 1.01 mg/capsule
amount of tasquinimod in capsules [1, 13]: 0.993 mg/capsule
amount of tasquinimod in capsules [1, 14]: 0.985 mg/capsule
amount of tasquinimod in capsules [2, 15]: 0.246 mg/capsule
amount of tasquinimod in capsules [2, 16]: 0.243 mg/capsule
amount of tasquinimod in capsules [2, 17]: 0.243 mg/capsule
amount of tasquinimod in capsules [2, 18]: 0.245 mg/capsule
amount of tasquinimod in capsules [2, 19]: 0.245 mg/capsule
amount of tasquinimod in capsules [2, 20]: 0.237 mg/capsule
amount of tasquinimod in capsules [2, 21]: 0.237 mg/capsule
amount of tasquinimod in capsules [2, 22]: 0.238 mg/capsule
Tasquinimod (mg/capsule) [2, 23]: 0.501 mg/capsule
Tasquinimod (mg/capsule) [2, 24]: 0.497 mg/capsule
Tasquinimod (mg/capsule) [2, 25]: 0.504 mg/capsule
Tasquinimod (mg/capsule) [2, 26]: 0.500 mg/capsule
Tasquinimod (mg/capsule) [2, 27]: 0.501 mg/capsule
Tasquinimod (mg/capsule) [2, 28]: 0.486 mg/capsule
Tasquinimod (mg/capsule) [2, 29]: 0.490 mg/capsule
Tasquinimod (mg/capsule) [2, 30]: 0.494 mg/capsule
Tasquinimod (mg/capsule) [2, 31]: 0.989 mg/capsule
Tasquinimod (mg/capsule) [2, 32]: 0.988 mg/capsule
Tasquinimod (mg/capsule) [2, 33]: 1.007 mg/capsule
Tasquinimod (mg/capsule) [2, 34]: 0.992 mg/capsule
Tasquinimod (mg/capsule) [2, 35]: 0.982 mg/capsule
Tasquinimod (mg/capsule) [2, 36]: 0.997 mg/capsule
Tasquinimod (mg/capsule) [2, 37]: 1.000 mg/capsule
Tasquinimod (mg/capsule) [2, 38]: 0.987 mg/capsule
Compound: COc1cccc2c1c(O)c(C(=O)N(C)c1ccc(C(F)(F)F)cc1)c(=O)n2C [Tasquinimod, 4-hydroxy-5-methoxy-N, 1-dimethyl-2-oxo-N-[4-(trifluoromethyl)phenyl]-1,2-dihydroquinoline-3-carboxamide]
